{
  "source": "patent US9951065B2",
  "about": "(Gilead Sciences, Inc., priority 2015, dated 2018)",
  "data": [
    {"target": "T1, IDO1 (Homo sapiens, UniProt P14902)", "T1 construct": "HeLa cells were treated with a test compound in the presence of IFNγ, which induces IDO1 expression; host or cells: H1-HeLa cells, IDO1 induced with IFNγ", "T1 sequence (P14902 whole entry)": "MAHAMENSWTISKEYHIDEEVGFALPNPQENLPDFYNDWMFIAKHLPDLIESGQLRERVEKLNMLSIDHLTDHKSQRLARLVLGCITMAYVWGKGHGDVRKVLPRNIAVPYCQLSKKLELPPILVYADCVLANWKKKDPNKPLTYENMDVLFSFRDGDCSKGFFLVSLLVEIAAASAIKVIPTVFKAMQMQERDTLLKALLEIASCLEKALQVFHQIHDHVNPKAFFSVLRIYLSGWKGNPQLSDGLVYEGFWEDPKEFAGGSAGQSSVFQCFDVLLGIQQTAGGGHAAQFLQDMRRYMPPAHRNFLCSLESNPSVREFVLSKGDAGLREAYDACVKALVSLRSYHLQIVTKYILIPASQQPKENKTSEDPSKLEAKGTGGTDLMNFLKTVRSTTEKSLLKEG", "assay": "Cell-based (HeLa) assay for measurement of IDO1 inhibition (kynurenine levels in supernatant after IFNγ induction)", "conditions": "HeLa cells, IFNγ-induced IDO1, kynurenine in supernatant after 48 hour incubation; geometric mean of a minimum of four determinations", "method_in_brief": "(§1)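 HeLa cells, 1,250 per well, treated with compound (0.5% DMSO final) plus IFNγ to induce IDO1, for 48 h. Supernatant kynurenine measured by TCA hydrolysis at 60 °C, then p-dimethylaminobenzaldehyde, absorbance 480 nm. EC50 from a four-parameter fit normalized to −/+IFNγ controls; geometric mean of at least four runs.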", "units": {"EC50": "nM"}, "values": [
      {"smiles": "O/N=C(\\Nc1ccc(F)c(-c2ccccc2)c1)c1ccnc2nc[nH]c12", "note": "[Example 77, N-(6-Fluoro-[1,1′-biphenyl]-3-yl)-N′-hydroxy-1H-imidazo[4,5-b]pyridine-7-carboximidamide]", "EC50": 2290},
      {"smiles": "O/N=C(\\Nc1ccc(F)c(Cl)c1)c1cc(F)c(F)c2nc(NCCN3CCOCC3)[nH]c12", "note": "[Example 23, N-(3-Chloro-4-fluorophenyl)-4,5-difluoro-N′-hydroxy-2-((2-morpholinoethyl)amino)-1H-benzo[d]imidazole-7-carboximidamide]", "EC50": 346},
      {"smiles": "CN(C)CCNc1nc2c(F)c(F)cc(/C(=N/O)Nc3ccc(F)c(Cl)c3)c2[nH]1", "note": "[Example 43, N-(3-Chloro-4-fluorophenyl)-2-((2-(dimethylamino)ethyl)amino)-4,5-difluoro-N′-hydroxy-1H-benzo[d]imidazole-7-carboximidamide]", "EC50": 136},
      {"smiles": "CCC#Cc1cc(N/C(=N\\O)c2ccnc3nc[nH]c23)ccc1F", "note": "[Example 78, N-(3-(But-1-yn-1-yl)-4-fluorophenyl)-N′-hydroxy-1H-imidazo[4,5-b]pyridine-7-carboximidamide]", "EC50": 2640},
      {"smiles": "Nc1nc2c(F)ccc(/C(=N/O)Nc3cccc(Br)c3)c2[nH]1", "note": "[Example 18, 2-Amino-N-(3-bromophenyl)-4-fluoro-N′-hydroxy-1H-benzo[d]imidazole-7-carboximidamide]", "EC50": 312},
      {"smiles": "CNc1nc2nccc(/C(=N/O)Nc3cccc(Cl)c3)c2[nH]1", "note": "[Example 166, N-(3-Chlorophenyl)-N′-hydroxy-2-(methylamino)-1H-imidazo[4,5-b]pyridine-7-carboximidamide]", "EC50": 383},
      {"smiles": "O/N=C(\\Nc1ccc(F)c(Cl)c1)c1ccnc2nc(CNCC(F)(F)F)[nH]c12", "note": "[Example 118, N-(3-Chloro-4-fluorophenyl)-N′-hydroxy-2-(((2,2,2-trifluoroethyl)amino)methyl)-1H-imidazo[4,5-b]pyridine-7-carboximidamide]", "EC50": 4640},
      {"smiles": "O/N=C(\\Nc1ccc(F)c(Cl)c1)c1ccnc2nc(NCC(F)(F)F)[nH]c12", "note": "[Example 157, N-(3-Chloro-4-fluorophenyl)-N′-hydroxy-2-((2,2,2-trifluoroethyl)amino)-1H-imidazo[4,5-b]pyridine-7-carboximidamide]", "EC50": 1090},
      {"smiles": "O/N=C(\\Nc1ccc(F)c(Cl)c1)c1ccnc2nc(-c3ncc[nH]3)[nH]c12", "note": "[Example 149, N-(3-Chloro-4-fluorophenyl)-N′-hydroxy-2-(1H-imidazol-2-yl)-1H-imidazo[4,5-b]pyridine-7-carboximidamide]", "EC50": 529},
      {"smiles": "O/N=C(\\Nc1ccc(Cl)c2ccccc12)c1ccnc2nc[nH]c12", "note": "[Example 105, N-(4-Chloronaphthalen-1-yl)-N′-hydroxy-1H-imidazo[4,5-b]pyridine-7-carboximidamide]", "EC50": 3030},
      {"smiles": "OCCc1nc2nccc(/C(=N/O)Nc3ccc(F)c(Cl)c3)c2[nH]1", "note": "[Example 183, N-(3-Chloro-4-fluorophenyl)-N′-hydroxy-2-(2-hydroxyethyl)-1H-imidazo[4,5-b]pyridine-7-carboximidamide]", "EC50": 2400},
      {"smiles": "O/N=C(\\Nc1ccc(F)c(Cl)c1)c1cc(Cl)cc2[nH]cnc12", "note": "[Example 11, 6-Chloro-N-(3-chloro-4-fluorophenyl)-N′-hydroxy-1H-benzo[d]imidazole-4-carboximidamide]", "EC50": 7600},
      {"smiles": "O/N=C(\\Nc1ccc(F)c(Cl)c1)c1ccnc2nc(CNc3ncccn3)[nH]c12", "note": "[Example 182, N-(3-Chloro-4-fluorophenyl)-N′-hydroxy-2-((pyrimidin-2-ylamino)methyl)-1H-imidazo[4,5-b]pyridine-7-carboximidamide]", "EC50": 6400},
      {"smiles": "CC(=O)NCCc1nc2nccc(/C(=N/O)Nc3ccc(F)c(Cl)c3)c2[nH]1", "note": "[Example 270, N-(2-(7-(N-(3-chloro-4-fluorophenyl)-N′-hydroxycarbamimidoyl)-1H-imidazo[4,5-b]pyridin-2-yl)ethyl)acetamide]", "EC50": "> 10000"},
      {"smiles": "CN(CCNc1nc2nccc(/C(=N/O)Nc3ccc(F)c(Cl)c3)c2[nH]1)C1CCOCC1", "note": "[Example 239, N-(3-chloro-4-fluorophenyl)-N′-hydroxy-2-((2-(methyl(tetrahydro-2H-pyran-4-yl)amino)ethyl)amino)-1H-imidazo[4,5-b]pyridine-7-carboximidamide]", "EC50": 1210},
      {"smiles": "O/N=C(\\Nc1ccc(F)c(Cl)c1)c1ccnc2nc(CNC3CCOCC3)[nH]c12", "note": "[Example 132, N-(3-Chloro-4-fluorophenyl)-N′-hydroxy-2-(((tetrahydro-2H-pyran-4-yl)amino)methyl)-1H-imidazo[4,5-b]pyridine-7-carboximidamide]", "EC50": 3430},
      {"smiles": "COCc1nc2nccc(/C(=N/O)Nc3ccc(F)c(Cl)c3)c2[nH]1", "note": "[Example 110, N-(3-Chloro-4-fluorophenyl)-N′-hydroxy-2-(methoxymethyl)-1H-imidazo[4,5-b]pyridine-7-carboximidamide]", "EC50": 2320},
      {"smiles": "NCCc1nc2c(F)c(F)cc(/C(=N/O)Nc3ccc(F)c(Cl)c3)c2[nH]1", "note": "[Example 211, 2-(2-aminoethyl)-N-(3-chloro-4-fluorophenyl)-4,5-difluoro-N′-hydroxy-1H-benzo[d]imidazole-7-carboximidamide]", "EC50": "> 10000"},
      {"smiles": "ON=C(Nc1ccc(F)c(Cl)c1)c1ccnc2nc(NCCN3CCC(F)(F)CC3)[nH]c12", "note": "[Example 214, N-(3-chloro-4-fluorophenyl)-2-((2-(4,4-difluoropiperidin-1-yl)ethyl)amino)-N′-hydroxy-1H-imidazo[4,5-b]pyridine-7-carboximidamide]", "EC50": 1910},
      {"smiles": "CN(CCNc1nc2nccc(/C(=N/O)Nc3ccc(F)c(Cl)c3)c2[nH]1)CC(F)F", "note": "[Example 220, N-(3-chloro-4-fluorophenyl)-2-((2-((2,2-difluoroethyl)(methyl)amino)ethyl)amino)-N′-hydroxy-1H-imidazo[4,5-b]pyridine-7-carboximidamide]", "EC50": 2380},
      {"smiles": "O/N=C(\\Nc1ccc(F)c(Cl)c1)c1ccnc2nc(NC3CCC3)[nH]c12", "note": "[Example 164, N-(3-Chloro-4-fluorophenyl)-2-(cyclobutylamino)-N′-hydroxy-1H-imidazo[4,5-b]pyridine-7-carboximidamide]", "EC50": 798},
      {"smiles": "O/N=C(\\Nc1ccc(F)c(Cl)c1)c1cc(F)cc2nc[nH]c12", "note": "[Example 4, N-(3-Chloro-4-fluorophenyl)-5-fluoro-N′-hydroxy-1H-benzo[d]imidazole-7-carboximidamide]", "EC50": 527},
      {"smiles": "Cn1cnc2c(/C(=N/O)Nc3ccc(F)c(Cl)c3)ccnc21", "note": "[Example 197, N-(3-Chloro-4-fluorophenyl)-N′-hydroxy-3-methyl-3H-imidazo[4,5-b]pyridine-7-carboximidamide]", "EC50": 5460},
      {"smiles": "O/N=C(\\Nc1cccc2ccoc12)c1ccnc2nc[nH]c12", "note": "[Example 69, N-(Benzofuran-7-yl)-N′-hydroxy-1H-imidazo[4,5-b]pyridine-7-carboximidamide]", "EC50": 1340}
    ]},
    {"target": "T1, IDO1", "assay": "Cell-based (HeLa) assay for measurement of IDO1 inhibition (kynurenine levels in supernatant after IFNγ induction)", "conditions": "HeLa cells, IFNγ-induced IDO1, kynurenine in supernatant, 48 hour incubation; geometric mean of a minimum of four determinations", "method_in_brief": "as §1", "units": {"EC50": "nM"}, "values": [
      {"smiles": "CS(=O)(=O)NCCNc1nc2nccc(/C(=N/O)Nc3ccc(F)c(Cl)c3)c2[nH]1", "note": "[Example 405, N-(3-chloro-4-fluorophenyl)-N′-hydroxy-2-((2-(methylsulfonamido)ethyl)amino)-1H-imidazo[4,5-b]pyridine-7-carboximidamide]", "EC50": 7110},
      {"smiles": "Cc1nnc(CNc2nc3nccc(/C(=N/O)Nc4ccc(F)c(Cl)c4)c3[nH]2)o1", "note": "[Example 427, N-(3-chloro-4-fluorophenyl)-N′-hydroxy-2-(((5-methyl-1,3,4-oxadiazol-2-yl)methyl)amino)-1H-imidazo[4,5-b]pyridine-7-carboximidamide]", "EC50": 1070},
      {"smiles": "OCC1CCCN1CCNc1nc2c(F)c(F)cc(/C(=N/O)Nc3ccc(F)c(Cl)c3)c2[nH]1", "note": "(stereo not drawn) [Example 490, N-(3-chloro-4-fluorophenyl)-4,5-difluoro-N′-hydroxy-2-((2-(2-(hydroxymethyl)pyrrolidin-1-yl)ethyl)amino)-1H-benzo[d]imidazole-7-carboximidamide]", "EC50": 186},
      {"smiles": "CN(C)CCSc1nc2c(F)c(F)cc(/C(=N/O)Nc3ccc(F)c(Cl)c3)c2[nH]1", "note": "[Example 488, N-(3-chloro-4-fluorophenyl)-2-((2-(dimethylamino)ethyl)thio)-4,5-difluoro-N′-hydroxy-1H-benzo[d]imidazole-7-carboximidamide]", "EC50": 3010},
      {"smiles": "CN1CC[C@H](Nc2nc3c(F)c(F)cc(/C(=N/O)Nc4ccc(F)c(Cl)c4)c3[nH]2)C1", "note": "[Example 447, (S)—N-(3-chloro-4-fluorophenyl)-4,5-difluoro-N′-hydroxy-2-((1-methylpyrrolidin-3-yl)amino)-1H-benzo[d]imidazole-7-carboximidamide]", "EC50": 325},
      {"smiles": "O/N=C(\\Nc1ccc(F)c(Cl)c1)c1ccnc2nc(CC3CCCN3)[nH]c12", "note": "(stereo not drawn) [Example 329, N-(3-chloro-4-fluorophenyl)-N′-hydroxy-2-(pyrrolidin-2-ylmethyl)-1H-imidazo[4,5-b]pyridine-7-carboximidamide]", "EC50": 5000},
      {"smiles": "O/N=C(\\Nc1ccc(F)c(Cl)c1)c1cc(F)c(F)c2nc(NCCCN3CCCC3)[nH]c12", "note": "[Example 434, N-(3-chloro-4-fluorophenyl)-4,5-difluoro-N′-hydroxy-2-((3-(pyrrolidin-1-yl)propyl)amino)-1H-benzo[d]imidazole-7-carboximidamide]", "EC50": 1240},
      {"smiles": "CN1[C@@H]2CCC(Nc3nc4c(F)c(F)cc(/C(=N/O)Nc5ccc(F)c(Cl)c5)c4[nH]3)[C@H]1CC2", "note": "(stereo partly drawn) [Example 469, N-(3-chloro-4-fluorophenyl)-4,5-difluoro-N′-hydroxy-2-(((1R,5R)-8-methyl-8-azabicyclo[3.2.1]octan-2-yl)amino)-1H-benzo[d]imidazole-7-carboximidamide]", "EC50": 959},
      {"smiles": "O/N=C(\\Nc1ccc(F)c(Cl)c1)c1cc(F)cc2nc(NCCN3CCCC3)[nH]c12", "note": "[Example 380, N-(3-chloro-4-fluorophenyl)-5-fluoro-N′-hydroxy-2-((2-(pyrrolidin-1-yl)ethyl)amino)-1H-benzo[d]imidazole-7-carboximidamide]", "EC50": 1390}
    ]}
  ]
}
